Source: the NIST ThermoML archive (doi:10.1021/acs.jced.8b00837)
Where “and” joins values, the source holds several entries; their conditions need not be identical. Identical values can stand only once.

Conditions: Liquid, Vibrating tube method

CCCCn1cc[n+](C)c1.O=S(=O)([O-])C(F)(F)F [1-butyl-3-methylimidazolium trifluoromethanesulfonate]
Conditions | mass density
283.14 K, 20345 kPa | 1320.61 kg/m3
283.15 K, 101 kPa | 1309.81 kg/m3 and 1309.8 kg/m3
283.15 K, 5337 kPa | 1312.37 kg/m3
283.15 K, 9906 kPa | 1315.03 kg/m3
283.15 K, 29997 kPa | 1325.6 kg/m3
283.15 K, 90097 kPa | 1353.37 kg/m3
283.15 K, 100086 kPa | 1357.13 kg/m3
283.15 K, 109957 kPa | 1361.36 kg/m3
283.15 K, 119997 kPa | 1365.53 kg/m3
283.15 K, 129993 kPa | 1369.54 kg/m3
283.15 K, 139996 kPa | 1373.39 kg/m3
283.16 K, 49996 kPa | 1335.42 kg/m3
283.16 K, 60363 kPa | 1340.27 kg/m3
283.16 K, 69993 kPa | 1344.64 kg/m3
283.16 K, 79621 kPa | 1348.88 kg/m3
283.17 K, 1225 kPa | 1310.35 kg/m3
283.17 K, 40094 kPa | 1330.63 kg/m3
288.15 K, 101 kPa | 1305.77 kg/m3
293.15 K, 101 kPa | 1301.75 kg/m3 and 1301.72 kg/m3
293.15 K, 9722 kPa | 1307 kg/m3
293.15 K, 20425 kPa | 1312.86 kg/m3
293.15 K, 29997 kPa | 1317.9 kg/m3
293.15 K, 49997 kPa | 1327.93 kg/m3
293.15 K, 69996 kPa | 1337.34 kg/m3
293.15 K, 89996 kPa | 1346.17 kg/m3
293.15 K, 109846 kPa | 1354.33 kg/m3
293.15 K, 119150 kPa | 1358.24 kg/m3
293.15 K, 129846 kPa | 1362.58 kg/m3
293.15 K, 138949 kPa | 1366.14 kg/m3
293.16 K, 40322 kPa | 1323.16 kg/m3
293.16 K, 60340 kPa | 1332.87 kg/m3
293.16 K, 100028 kPa | 1350.06 kg/m3
293.17 K, 80507 kPa | 1342.04 kg/m3
293.2 K, 1740 kPa | 1302.55 kg/m3
293.2 K, 4978 kPa | 1304.2 kg/m3
298.13 K, 30005 kPa | 1314.25 kg/m3
298.13 K, 90001 kPa | 1342.82 kg/m3
298.14 K, 59968 kPa | 1329.2 kg/m3
298.15 K, 101 kPa | 1297.74 kg/m3 and 1297.8 kg/m3
298.15 K, 1023 kPa | 1298.28 kg/m3
298.15 K, 10006 kPa | 1303.37 kg/m3
298.15 K, 19968 kPa | 1308.89 kg/m3
298.15 K, 40008 kPa | 1319.41 kg/m3
298.15 K, 49962 kPa | 1324.37 kg/m3
298.15 K, 70005 kPa | 1333.89 kg/m3
298.15 K, 79986 kPa | 1338.41 kg/m3
298.15 K, 99997 kPa | 1347.1 kg/m3
298.15 K, 109968 kPa | 1351.04 kg/m3
298.15 K, 120001 kPa | 1355.27 kg/m3
298.15 K, 139996 kPa | 1363.31 kg/m3
298.16 K, 5026 kPa | 1300.4 kg/m3
298.16 K, 130002 kPa | 1359.35 kg/m3
303.15 K, 101 kPa | 1293.74 kg/m3
313.13 K, 101 kPa | 1285.81 kg/m3
313.15 K, 101 kPa | 1285.7 kg/m3
313.15 K, 10395 kPa | 1291.48 kg/m3
313.15 K, 20326 kPa | 1296.92 kg/m3
313.15 K, 29996 kPa | 1302.11 kg/m3
313.15 K, 40009 kPa | 1307.36 kg/m3
313.15 K, 49994 kPa | 1312.48 kg/m3
313.15 K, 70102 kPa | 1322.42 kg/m3
313.15 K, 79871 kPa | 1327.08 kg/m3
313.15 K, 90021 kPa | 1331.79 kg/m3
313.15 K, 99922 kPa | 1336.27 kg/m3
313.15 K, 109826 kPa | 1340.63 kg/m3
313.15 K, 121633 kPa | 1345.69 kg/m3
313.15 K, 129825 kPa | 1349.1 kg/m3
313.15 K, 139153 kPa | 1352.88 kg/m3
313.16 K, 60130 kPa | 1317.55 kg/m3
313.2 K, 1097 kPa | 1286.27 kg/m3
313.2 K, 5364 kPa | 1288.67 kg/m3
333.09 K, 1557 kPa | 1270.96 kg/m3
333.1 K, 5234 kPa | 1273.19 kg/m3
333.11 K, 9847 kPa | 1275.96 kg/m3
333.14 K, 19578 kPa | 1281.68 kg/m3
333.15 K, 101 kPa | 1270.09 kg/m3 and 1270.06 kg/m3
333.15 K, 29996 kPa | 1287.62 kg/m3
333.15 K, 69992 kPa | 1308.75 kg/m3
333.15 K, 79293 kPa | 1313.31 kg/m3
333.15 K, 89992 kPa | 1318.4 kg/m3
333.15 K, 98041 kPa | 1322.14 kg/m3
333.15 K, 109813 kPa | 1327.45 kg/m3
333.16 K, 49998 kPa | 1298.5 kg/m3
333.16 K, 59777 kPa | 1303.59 kg/m3
333.16 K, 119774 kPa | 1331.81 kg/m3
333.16 K, 129813 kPa | 1336.09 kg/m3
333.16 K, 138881 kPa | 1339.86 kg/m3
333.17 K, 39827 kPa | 1293.05 kg/m3
343.15 K, 101 kPa | 1262.32 kg/m3
353.13 K, 5397 kPa | 1257.9 kg/m3
353.14 K, 1725 kPa | 1255.5 kg/m3
353.14 K, 10408 kPa | 1261.13 kg/m3
353.14 K, 60245 kPa | 1290.27 kg/m3
353.14 K, 69993 kPa | 1295.39 kg/m3
353.14 K, 79196 kPa | 1300.06 kg/m3
353.14 K, 119409 kPa | 1318.82 kg/m3
353.15 K, 101 kPa | 1254.61 kg/m3 and 1254.43 kg/m3
353.15 K, 49992 kPa | 1284.69 kg/m3
353.15 K, 89993 kPa | 1305.36 kg/m3
353.15 K, 97743 kPa | 1309.04 kg/m3
353.15 K, 109795 kPa | 1314.57 kg/m3
353.15 K, 129794 kPa | 1323.26 kg/m3
353.16 K, 40316 kPa | 1279.23 kg/m3
353.16 K, 139089 kPa | 1327.11 kg/m3
353.17 K, 29996 kPa | 1273.21 kg/m3
353.19 K, 20124 kPa | 1267.23 kg/m3
373.12 K, 78937 kPa | 1286.82 kg/m3
373.14 K, 1630 kPa | 1240.5 kg/m3
373.14 K, 4913 kPa | 1242.76 kg/m3
373.14 K, 40245 kPa | 1265.34 kg/m3
373.14 K, 69993 kPa | 1282.13 kg/m3
373.14 K, 89993 kPa | 1292.43 kg/m3
373.14 K, 99354 kPa | 1297.01 kg/m3
373.14 K, 109823 kPa | 1301.97 kg/m3
373.15 K, 101 kPa | 1239.37 kg/m3 and 1239.44 kg/m3
373.15 K, 20238 kPa | 1252.94 kg/m3
373.15 K, 29993 kPa | 1259.1 kg/m3
373.15 K, 49994 kPa | 1271.05 kg/m3
373.15 K, 59359 kPa | 1276.34 kg/m3
373.15 K, 118844 kPa | 1306.11 kg/m3
373.15 K, 129824 kPa | 1311 kg/m3
373.15 K, 139225 kPa | 1315.08 kg/m3
373.16 K, 10553 kPa | 1246.58 kg/m3
393.12 K, 20141 kPa | 1238.76 kg/m3
393.13 K, 29997 kPa | 1245.39 kg/m3
393.13 K, 39789 kPa | 1251.72 kg/m3
393.14 K, 10362 kPa | 1231.9 kg/m3
393.14 K, 99285 kPa | 1284.99 kg/m3
393.14 K, 118691 kPa | 1294.13 kg/m3
393.15 K, 101 kPa | 1224.37 kg/m3 and 1224.41 kg/m3
393.15 K, 49984 kPa | 1258.04 kg/m3
393.15 K, 69997 kPa | 1269.67 kg/m3
393.15 K, 89992 kPa | 1280.34 kg/m3
393.15 K, 109795 kPa | 1290.04 kg/m3
393.15 K, 129796 kPa | 1299.01 kg/m3
393.15 K, 139693 kPa | 1303.18 kg/m3
393.16 K, 60109 kPa | 1264.05 kg/m3
393.16 K, 79320 kPa | 1274.76 kg/m3
393.17 K, 1385 kPa | 1225.37 kg/m3
393.18 K, 5168 kPa | 1228.15 kg/m3
413.13 K, 1691 kPa | 1210.63 kg/m3
413.13 K, 99873 kPa | 1273.17 kg/m3
413.15 K, 101 kPa | 1209.6 kg/m3 and 1209.39 kg/m3
413.15 K, 5006 kPa | 1213.19 kg/m3
413.15 K, 80334 kPa | 1262.84 kg/m3
413.15 K, 89994 kPa | 1268.07 kg/m3
413.15 K, 109886 kPa | 1278.08 kg/m3
413.17 K, 129886 kPa | 1287.14 kg/m3
413.17 K, 139479 kPa | 1291.12 kg/m3
413.18 K, 69993 kPa | 1256.95 kg/m3
413.18 K, 119193 kPa | 1282.42 kg/m3
413.2 K, 10288 kPa | 1217.19 kg/m3
413.2 K, 19961 kPa | 1224.32 kg/m3
413.2 K, 29916 kPa | 1231.38 kg/m3
413.2 K, 39957 kPa | 1238.21 kg/m3
413.2 K, 49993 kPa | 1244.75 kg/m3
413.21 K, 59956 kPa | 1250.96 kg/m3
